Earlier results in patent US6849271B2, “Microcapsule matrix microspheres, absorption-enhancing pharmaceutical compositions and methods” (Verion, Inc., priority 2001, dated 2005).

Conditions: published by the FDA

Permeability class, Low:
OC[C@@H](O)[C@@H](O)[C@H](O)[C@H](O)CO [Mannitol]
CNC(=C[N+](=O)[O-])NCCSCc1ccc(CN(C)C)o1 [Ranitidine]
CC1(C)S[C@@H]2[C@H](NC(=O)[C@H](N)c3ccc(O)cc3)C(=O)N2[C@H]1C(=O)O [Amoxicillin]
C[C@](N)(Cc1ccc(O)c(O)c1)C(=O)O [L-Methyldopa]
